# Target: Human Factor D (Homo sapiens (Human), UniProt P00746)
# Assay: Human Factor D Assay
# Format: biochemical
# Details: Table 1; Factor D purified from human serum, 80 nM, substrate Z-L-Lys-SBzl; read-out: IC50
# Experimental: Example 12. Human Factor D Assay
# Human Factor D (purified from human serum, Complement Technology, Inc.) at 80 nM final concentration is incubated with test compound at various concentrations for 5 minutes at room temperature in 50 mM Tris, 1M NaCl, pH 7.5. A synthetic substrate Z-L-Lys-SBzl and DTNB (Ellman's reagent) are added to final concentrations of 100 μM each. Absorbance at 405 nm (A405) is recorded at 30 second intervals for 30 minutes using a microplate spectrophotometer. IC50 values are calculated by nonlinear regression of complement Factor D reaction rates as a function of test compound concentration.
# Chain of Human Factor D (P00746 26-253): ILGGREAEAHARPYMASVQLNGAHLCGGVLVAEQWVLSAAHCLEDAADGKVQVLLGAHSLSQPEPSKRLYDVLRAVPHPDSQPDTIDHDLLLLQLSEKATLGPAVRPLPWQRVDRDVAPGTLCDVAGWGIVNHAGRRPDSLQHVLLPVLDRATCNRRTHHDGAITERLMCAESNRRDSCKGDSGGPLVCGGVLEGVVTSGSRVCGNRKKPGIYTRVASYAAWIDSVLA
row,Structure (SMILES),IC50
1,"CC(=O)c1cn(CC(=O)N2C[C@H](F)C[C@H]2C(=O)NCc2cc(F)cc(Cl)c2)c2ccc(Nc3cncnc3)cc12 [Compound 18, (2S,4R)-1-(2-(3-acetyl-5-(pyrimidin-5-ylamino)-1H-indol-1-yl)acetyl)-N-(3-chloro-5-fluorobenzyl)-4-fluoropyrrolidine-2-carboxamide]",< 1000 nM
2,"CC(=O)c1cn(CC(=O)N2C[C@H](F)C[C@H]2C(=O)Nc2ccc3cn[nH]c3c2)c2ccc(Nc3cncnc3)cc12 [Compound 25, (2S,4R)-1-(2-(3-acetyl-5-(pyrimidin-5-ylamino)-1H-indol-1-yl)acetyl)-4-fluoro-N-(1H-indazol-6-yl)pyrrolidine-2-carboxamide]",< 1000 nM
3,"CC(=O)c1cn(CC(=O)N2C[C@H](F)C[C@H]2C(=O)Nc2cc(C3CC3C)no2)c2ccc(Nc3cncnc3)cc12 (stereo partly drawn) [Compound 65, (2S,4R)-1-(2-(3-acetyl-5-(pyrimidin-5-ylamino)-1H-indol-1-yl)acetyl)-4-fluoro-N-(3-(2-methylcyclopropyl)isoxazol-5-yl)pyrrolidine-2-carboxamide]",< 1000 nM
4,"CC(=O)c1cn(CC(=O)N2C[C@H](F)C[C@H]2C(=O)Nc2ccc3ncsc3c2)c2ccc(Nc3cncnc3)cc12 [Compound 56, (2S,4R)-1-(2-(3-acetyl-5-(pyrimidin-5-ylamino)-1H-indol-1-yl)acetyl)-N-(benzo[d]thiazol-6-yl)-4-fluoropyrrolidine-2-carboxamide]",< 1000 nM
5,"CCN1Cc2ccc(NC(=O)[C@@H]3C[C@@H](F)CN3C(=O)Cn3cc(C(C)=O)c4cc(Nc5cncnc5)ccc43)cc2C1=O [Compound 23, (2S,4R)-1-(2-(3-acetyl-5-(pyrimidin-5-ylamino)-1H-indol-1-yl)acetyl)-N-(2-ethyl-3-oxoisoindolin-5-yl)-4-fluoropyrrolidine-2-carboxamide]",< 1000 nM
6,"CC(=O)c1cn(CC(=O)N2C[C@H](F)C[C@H]2C(=O)Nc2cc(C)nn2-c2ccccc2F)c2ccc(Nc3cncnc3)cc12 [Compound 57, (2S,4R)-1-(2-(3-acetyl-5-(pyrimidin-5-ylamino)-1H-indol-1-yl)acetyl)-4-fluoro-N-(1-(2-fluorophenyl)-3-methyl-1H-pyrazol-5-yl)pyrrolidine-2-carboxamide]",< 1000 nM
7,"CC(=O)c1cn(CC(=O)N2C[C@H](F)C[C@H]2C(=O)NCc2cccnc2)c2ccc(Nc3cncnc3)cc12 [Compound 43, (2S,4R)-1-(2-(3-acetyl-5-(pyrimidin-5-ylamino)-1H-indol-1-yl)acetyl)-4-fluoro-N-(pyridin-3-ylmethyl) pyrrolidine-2-carboxamide]",< 1000 nM
8,"CC(=O)c1cn(CC(=O)N2C[C@H](F)C[C@H]2C(=O)NC2CCCN(c3ccccc3Cl)C2=O)c2ccc(Nc3cncnc3)cc12 (stereo partly drawn) [Compound 58, (2S,4R)-1-(2-(3-acetyl-5-(pyrimidin-5-ylamino)-1H-indol-1-yl)acetyl)-N-(1-(2-chlorophenyl)-2-oxopiperidin-3-yl)-4-fluoropyrrolidine-2-carboxamide]",< 1000 nM
9,"CC(=O)c1cn(CC(=O)N2C[C@H](F)C[C@H]2C(=O)Nc2cccc3c2CN(c2ccccn2)C3)c2ccc(Nc3cncnc3)cc12 [Compound 27, (2S,4R)-1-(2-(3-acetyl-5-(pyrimidin-5-ylamino)-1H-indol-1-yl)acetyl)-4-fluoro-N-(2-(pyridin-2-yl)isoindolin-4-yl)pyrrolidine-2-carboxamide]",1000 to 10000 nM
10,"CC(=O)c1cn(CC(=O)N2C[C@H](F)C[C@H]2C(=O)Nc2ccc(F)c(-c3nnc4n3CCCCC4)c2)c2ccc(Nc3cncnc3)cc12 [Compound 26, (2S,4R)-1-(2-(3-acetyl-5-(pyrimidin-5-ylamino)-1H-indol-1-yl)acetyl)-4-fluoro-N-(4-fluoro-3-(6,7,8,9-tetrahydro-5H-[1,2,4]triazolo[4,3-a]azepin-3-yl)phenyl) pyrrolidine-2-carboxamide]",< 1000 nM
11,"CC(=O)c1cn(CC(=O)N2C[C@H](F)C[C@H]2C(=O)N[C@@H](C)c2oc3ccc(F)cc3c2C)c2ccc(Nc3cncnc3)cc12 [Compound 75, (2S,4R)-1-(2-(3-acetyl-5-(pyrimidin-5-ylamino)-1H-indol-1-yl)acetyl)-4-fluoro-N-((S)-1-(5-fluoro-3-methylbenzofuran-2-yl)ethyl) pyrrolidine-2-carboxamide]",< 1000 nM
12,"CC(=O)c1cn(CC(=O)N2C[C@H](F)C[C@H]2C(=O)Nc2cccc(Br)n2)c2ccc(Nc3cncnc3)cc12 [Compound 4, (2S,4R)-1-(2-(3-acetyl-5-(pyrimidin-5-ylamino)-1H-indol-1-yl)acetyl)-N-(6-bromopyridin-2-yl)-4-fluoropyrrolidine-2-carboxamide]",< 1000 nM
13,"CC(=O)c1cn(CC(=O)N2C[C@H](F)C[C@H]2C(=O)Nc2ccc(O)cn2)c2ccc(Nc3cncnc3)cc12 [Compound 70, (2S,4R)-1-(2-(3-acetyl-5-(pyrimidin-5-ylamino)-1H-indol-1-yl)acetyl)-4-fluoro-N-(5-hydroxypyridin-2-yl)pyrrolidine-2-carboxamide]",1000 to 10000 nM
14,"CC(=O)c1cn(CC(=O)N2C[C@H](F)C[C@H]2C(=O)Nc2cccc(-c3ccccc3Cl)c2F)c2ccc(N(COC(=O)C(C)(C)C)c3cncnc3)cc12 [Compound 15, ((3-acetyl-1-(2-((2S,4R)-2-(2′-chloro-2-fluorobiphenyl-3-ylcarbamoyl)-4-fluoropyrrolidin-1-yl)-2-oxoethyl)-1H-indol-5-yl)(pyrimidin-5-yl)amino)methyl pivalate]",1000 to 10000 nM
15,"CC(=O)c1cn(C(=O)CN2C[C@H](F)C[C@H]2C(=O)Nc2nnc(-c3ccc(Cl)c(Cl)c3)s2)c2ccc(Nc3cncnc3)cc12 [Compound 39, (2S,4R)-1-(2-(3-acetyl-5-(pyrimidin-5-ylamino)-1H-indol-1-yl)-2-oxoethyl)-N-(5-(3,4-dichlorophenyl)-1,3,4-thiadiazol-2-yl)-4-fluoropyrrolidine-2-carboxamide]",> 10000 nM
16,"CC(=O)c1cn(CC(=O)N2C[C@H](F)C[C@H]2C(=O)Nc2nc(-c3ccccc3Cl)ns2)c2ccc(Nc3cncnc3)cc12 [Compound 29, (2S,4R)-1-(2-(3-acetyl-5-(pyrimidin-5-ylamino)-1H-indol-1-yl)acetyl)-N-(3-(2-chlorophenyl)-1,2,4-thiadiazol-5-yl)-4-fluoropyrrolidine-2-carboxamide]",< 1000 nM

# Same assay, conditions: Table 3; Factor D purified from human serum, 80 nM, substrate Z-L-Lys-SBzl; read-out: IC50 (Stars)
row,Structure (SMILES),IC50
1,"CC(=O)c1cn(CC(=O)N2C[C@H](F)C[C@H]2C(=O)NCCCc2ccccc2)c2ccc(Nc3cncnc3)cc12 [Compound 155, (2S,4R)-1-(2-(3-acetyl-5-(pyrimidin-5-ylamino)-1H-indol-1-yl)acetyl)-4-fluoro-N-(3-phenylpropyl) pyrrolidine-2-carboxamide]",< 1000 nM
2,"CC(=O)c1nn(CC(=O)N2[C@H](C(=O)Nc3nc(Br)ccc3C)C[C@@]3(C)C[C@@H]23)c2ccc(Nc3cncc(F)c3)cc12 [Compound 165, (1R,3S,5R)-2-(2-(3-acetyl-5-((5-fluoropyridin-3-yl)amino)-1H-indazol-1-yl)acetyl)-N-(6-bromo-3-methylpyridin-2-yl)-5-methyl-2-azabicyclo[3.1.0] hexane-3-carboxamide]",< 1000 nM
3,"CC(=O)c1cn(CC(=O)N2C[C@H](F)C[C@H]2C(=O)NCCc2ccccc2)c2ccc(Nc3cccnc3)cc12 [Compound 148, (2S,4R)-1-(2-(3-acetyl-5-(pyridin-3-ylamino)-1H-indol-1-yl)acetyl)-4-fluoro-N-phenethylpyrrolidin-2-carboxamide]",< 1000 nM
4,"CC(=O)c1cn(CC(=O)N2C[C@H](F)C[C@H]2C(=O)NCCc2ccccc2)c2ccc(Nc3cncnc3)cc12 [Compound 154, (2S,4R)-1-(2-(3-acetyl-5-(pyrimidin-5-ylamino)-1H-indol-1-yl)acetyl)-4-fluoro-N-phenethylpyrrolidin-2-carboxamide]",< 1000 nM
5,"CC(=O)c1cn(CC(=O)N2C[C@H](F)C[C@H]2C(=O)NCc2ccccc2)c2ccc(Nc3cncnc3)cc12 [Compound 153, (2S,4R)-1-(2-(3-acetyl-5-(pyrimidin-5-ylamino)-1H-indol-1-yl)acetyl)-N-benzyl-4-fluoropyrrolidine-2-carboxamide]",< 1000 nM
6,"CC(=O)c1nn(CC(=O)N2C[C@H](F)C[C@H]2C(=O)Nc2cccc(Br)n2)c2ccc(Nc3cncc(F)c3)cc12 [Compound 164, (2S,4R)-1-(2-(3-acetyl-5-((5-yl)amino)-1H-indazol-1-yl)acetyl)-N-(6-bromopyridin-2-yl)-4-fluoropyrrolidine-2-carboxamide]",< 1000 nM
7,"CC(=O)c1cn(CC(=O)N2CC[C@H]2C(=O)Nc2cccc(C)n2)c2ccc(Nc3cccnc3)cc12 [Compound 159, (S)-1-(2-(3-acetyl-5-(pyridin-3-ylamino)-1H-indol-1-yl)acetyl)-N-(6-methylpyridin-2-yl)azetidine-2-carboxamide]",> 10000 nM
8,"Cc1cccc(NC(=O)[C@@H]2[C@@H]3CCC(C3)N2C(=O)Cn2cc(C(N)=O)c3cc(Nc4ccc(Cl)nn4)ccc32)n1 [Compound 162, 5-((6-chloropyridazin-3-yl)amino)-1-(2-((3S,4R)-3-((6-methylpyridin-2-yl)carbamoyl)-2-azabicyclo[2.2.1]heptan-2-yl)-2-oxoethyl)-1H-indole-3-carboxamide]",< 1000 nM
9,"CC(=O)c1nn(CC(=O)N2C[C@H](F)C[C@H]2C(=O)Nc2cccc(Br)n2)c2ccc(Nc3cnc(C)nc3)cc12 [Compound 163, (2S,4R)-1-(2-(3-acetyl-5-((2-methylpyrimidin-5-yl)amino)-1H-indazol-1-yl)acetyl)-N-(6-bromopyridin-2-yl)-4-fluoropyrrolidine-2-carboxamide]",< 1000 nM
10,"CC(=O)c1cn(CC(=O)N2C[C@H](F)C[C@H]2C(=O)NCCCCc2ccccc2)c2ccc(Nc3cccnc3)cc12 [Compound 152, (2S,4R)-1-(2-(3-acetyl-5-(pyridin-3-ylamino)-1H-indol-1-yl)acetyl)-4-fluoro-N-(4-phenylbutyl) pyrrolidine-2-carboxamide]",< 1000 nM
